Assay results as given in US6878742B2, “Heterocyclic sulfonamide inhibitors of beta amyloid production” (Wyeth, priority 2000, dated 2005).
“And” between values parts separate entries of the source, which are not always exact repeats. Identical values can stand only once.

Test system: amyloid precursor protein (APP) proteolysis
Assay: Repressor Release Assay (RRA)
Format: cell-based
Conditions: luciferase activity over diluent control; for fold induction at 20 µg/mL / fold induction at 10 µg/mL / fold induction at 1 µg/mL / fold induction at 3 µg/mL: read-out: APPI Fold Increase; for fold induction at 1 µg/mL: Conc 1 μg/mL
Method in brief: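 This repressor release assay monitors APP proteolysis in mammalian cells. Transfected CHO-K1 cells (pRSVO-luc plus APP-lacI) were seeded at […], treated with compound diluted in 25 mM Hepes, then incubated 36-48 hours. After replacing media with PBS and adding LucLite lysis/substrate buffer, luminescence was measured, and fold increase over diluent control was calculated.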

Compound | fold induction at 20 µg/mL (Conc 20 μg/mL) | further results
CC(C)C[C@@H](c1ccccc1)[C@@H](CO)NS(=O)(=O)c1ccc(Cl)s1 [Example 47, 5-chloro-N-[(1S,2S)-1-(hydroxymethyl)-4-methyl-2-phenylpentyl]thiophene-2-sulfonamide] | 5.4 | –
C=C(C)C(O)C(NS(=O)(=O)c1ccc(Cl)s1)C(C)CC (mixture of isomers) [Example 133] | – | APPI Fold Increase (Conc 10 μg/mL): 2.51 fold and 1.68 fold
5-bromo-N-{(S,S)-2-hydroxy-1-[(S)-1-methylpropyl]pent-4-enyl}thiophene-2-sulfonamide [Example 194] | – | APPI Fold Increase (Conc 20 μg/mL): 9 fold and 5.3 fold
CC[C@H](C)[C@@H](CO)NS(=O)(=O)c1ccco1 [Example 206, N-[(1S,2S)-1-(hydroxymethyl)-2-methylbutyl]-2-furansulfonamide] | 1.8 | –
CC(C)C[C@@H](c1cccnc1)[C@@H](CO)NS(=O)(=O)c1ccc(Br)s1 [Example 69, 5-bromo-N-[(1S,2S)-1-(hydroxymethyl)-4-methyl-2-pyridin-3-ylpentyl]thiophene-2-sulfonamide] | 1.5 | –
CC(NCCO)[C@@H](CO)NS(=O)(=O)c1ccc(Cl)s1 (stereo partly drawn) [Example 81, 5-chloro-N-[(1S)-2-[(2-hydroxyethyl)amino]-1-(hydroxymethyl)propyl]-2-thiophenesulfonamide] | 1.5 | –
CC[C@H](C)[C@H](NS(=O)(=O)c1ccc(Cl)s1)C(O)(CC)CC [Example 166, 5-chloro-N-{(S)-2-ethyl-2-hydroxy-1-[(S)-1-methylpropyl]butyl}thiophene-2-sulfonamide] | – | fold induction at 10 µg/mL (Conc 10 μg/mL): 1.78
O=S(=O)(N[C@H](CO)Cc1ccccc1)c1ccc(Cl)s1 [Example 96, N-[(S)-1-benzyl-2-hydroxyethyl]-5-chlorothiophene-2-sulfonamide] | 1.5 | –
CC=C(C)C(O)C(NS(=O)(=O)c1ccc(Cl)s1)C(C)CC (mixture of isomers) [Example 135] | – | APPI Fold Increase (Conc 10 μg/mL): 1.93 fold and 1.75 fold
CCCCCC[C@@H](CC)[C@@H](CO)NS(=O)(=O)c1ccc(Cl)s1 [Example 77A, 5-Chloro-N-[(1S,2R)-2-ethyl-1-(hydroxymethyl)octyl]thiophene-2-sulfonamide] | 3.1 | –
CCC[C@H](C)[C@@H](CO)NS(=O)(=O)c1ccc(Cl)s1 [Example 33, 5-chloro-N-[(1S,2S)-1-(hydroxymethyl)-2-methylpentyl]thiophene-2-sulfonamide] | 6.5 | –
CC[C@H](C)[C@H](NS(=O)(=O)c1ccc(Cl)s1)C(O)c1ccc(Cl)cc1 (stereo partly drawn) [Example 131, 5-chloro-N-{(S,S)-1-[(4-chlorophenyl)(hydroxy)methyl]-2-methylbutyl}thiophene-2-sulfonamide] | – | fold induction at 10 µg/mL (Conc 10 μg/mL): 3.64
C[C@@H](O)[C@@H](CO)NS(=O)(=O)c1ccc(Cl)s1 [Example 103, 5-chloro-N-[(R,R)-2-hydroxy-1-(hydroxymethyl)propyl]thiophene-2-sulfonamide] | 2.3 | –
CCCCCC[C@@H](c1ccco1)[C@@H](CO)NS(=O)(=O)c1ccc(Cl)s1 [Example 51, 5-chloro-N-[(1S,2R)-2-(2-furyl)-1-(hydroxymethyl)octyl]thiophene-2-sulfonamide] | 4 | –
CC(C)CC(CO)NS(=O)(=O)c1ccc(Cl)s1 (centres unmarked) [Example 90] | – | APPI Fold Increase (Conc 3 μg/mL): 1.74 fold; APPI Fold Increase (Conc 10 μg/mL): 3.82 fold; APPI Fold Increase (Conc 20 μg/mL): 3.6 fold
CC(C)[C@@H](CO)NS(=O)(=O)c1ccc(Cl)s1 [Example 8, 5-Chloro-N-[(1S)-1-(hydroxymethyl)-2-methylpropyl]thiophene-2-sulfonamide] | 3.3 | fold induction at 1 µg/mL: 1.5; fold induction at 3 µg/mL (Conc 3 μg/mL): 2.5; fold induction at 10 µg/mL (Conc 10 μg/mL): 3.7
CC[C@H](C)[C@H](NS(=O)(=O)c1cccs1)C(O)C(C)(C)C (stereo partly drawn) [Example 145, N-{(S)-2-hydroxy-3,3-dimethyl-1-[(S)-1-methylpropyl]butyl}thiophene-2-sulfonamide] | – | fold induction at 10 µg/mL (Conc 10 μg/mL): 1.72
CCCCCC[C@@H](CCC)[C@@H](CO)NS(=O)(=O)c1ccc(Cl)s1 [Example 37, 5-chloro-N-[(1S,2R)-1-(hydroxymethyl)-2-propyloctyl]thiophene-2-sulfonamide] | 4.8 | –
CC(C)C[C@@H](C)[C@@H](CO)NS(=O)(=O)c1ccc(Cl)s1 [Example 27, 5-Chloro-N-[(1S,2R)-1-(hydroxymethyl)-2,4-dimethylpentyl]thiophene-2-sulfonamide] | 8.7 | –
CC[C@H](C)[C@H](NS(=O)(=O)c1cccs1)C(O)c1ccc(SC)cc1 (stereo partly drawn) [Example 153, N-((S,S)-1-{hydroxy[4-(methylthio)phenyl]methyl}-2-methylbutyl)thiophene-2-sulfonamide] | – | fold induction at 10 µg/mL (Conc 10 μg/mL): 2.09

Compound | fold induction at 20 µg/mL (Conc 20 μg/mL) | further results
CC[C@@H](c1ccc(-c2ccccc2)cc1)[C@@H](CO)NS(=O)(=O)c1ccc(Cl)s1 [Example 54, N-[(1S,2S)-2-[1,1'-biphenyl]-4-yl-1-(hydroxymethyl)butyl]-5-chlorothiophene-2-sulfonamide] | 3.3 | –
CC(C)C[C@@H](c1ccco1)[C@@H](CO)NS(=O)(=O)c1ccc(Br)s1 [Example 72, 5-bromo-N-[(1S,2R)-2-(2-furyl)-1-(hydroxymethyl)-4-methylpentyl]thiophene-2-sulfonamide] | 6.4 | –
O=S(=O)(N[C@H](CO)C1CCCCC1)c1ccc(Cl)s1 [Example 12, 5-Chloro-N-[(1S)-1-cyclohexyl-2-hydroxyethyl]thiophene-2-sulfonamide] | 4.3 | fold induction at 1 µg/mL: 2.58; fold induction at 3 µg/mL (Conc 3 μg/mL): 3.07; fold induction at 10 µg/mL (Conc 10 μg/mL): 4.2
C=CC(O)[C@@H](NS(=O)(=O)c1ccc(Cl)s1)[C@@H](C)CC (stereo partly drawn) [Example 127, 5-chloro-N-{(S)-2-hydroxy-1-[(S)-1-methylpropyl]but-3-enyl}thiophene-2-sulfonamide] | – | fold induction at 10 µg/mL (Conc 10 μg/mL): 4.27
CCC[C@H](CC(C)C)[C@@H](CO)NS(=O)(=O)c1ccc(Cl)s1 [Example 35, 5-chloro-N-[(1S,2R)-1-(hydroxymethyl)-4-methyl-2-propylpentyl]thiophene-2-sulfonamide] | 3.7 | –
CCCCCC[C@@H](c1ccco1)[C@@H](CO)NS(=O)(=O)c1ccc(Br)s1 [Example 73, 5-bromo-N-[(1S,2R)-2-(2-furyl)-1-(hydroxymethyl)octyl]thiophene-2-sulfonamide] | 1.9 | –
CC[C@H](C)[C@H](NS(=O)(=O)c1ccc(Br)s1)C(O)(CC)CC [Example 173, 5-bromo-N-{(S)-2-ethyl-2-hydroxy-1-[(S)-1-methylpropyl]butyl}thiophene-2-sulfonamide] | – | fold induction at 10 µg/mL (Conc 10 μg/mL): 1.5
CCCCCC(NCCO)[C@@H](CO)NS(=O)(=O)c1ccc(Cl)s1 (stereo partly drawn) [Example 83, 5-chloro-N-[(1S)-2-[(2-hydroxyethyl)amino]-1-(hydroxymethyl)heptyl]-2-thiophenesulfonamide] | 1.7 | –
CCCCC[C@H](c1ccc(OC)cc1)[C@@H](CO)NS(=O)(=O)c1ccc(Br)s1 [Example 64, 5-bromo-N-[(1S,2R)-1-(hydroxymethyl)-2-(4-methoxyphenyl)heptyl]thiophene-2-sulfonamide] | 2.9 | –
CC(C)(C)[C@@H](CO)NS(=O)(=O)c1ccc(Cl)s1 [Example 98] | – | APPI Fold Increase (Conc 10 μg/mL): 2.43 fold
CC[C@H](C)[C@@H](C=O)NS(=O)(=O)c1ccc(Cl)s1 [Example 118, 5-Chloro-N-[(S,S)-1-formyl-2-methylbutyl]thiophene-2 sulfonamide] | 4.8 | –
CC[C@H](C)[C@H](NS(=O)(=O)c1ccc(Cl)s1)C(O)(c1ccc(OC)cc1)c1ccc(OC)cc1 [Example 169, 5-chloro-N-((S,S)-1-{hydroxy[bis(4-methoxyphenyl)]methyl}-2-methylbutyl)thiophene-2-sulfonamide] | – | fold induction at 10 µg/mL (Conc 10 μg/mL): 1.51
CCC(C)C(C)C(CO)NS(=O)(=O)c1ccc(Cl)s1 (centres unmarked) [Example 19, 5-Chloro-N-[1-(hydroxymethyl)-2,3-dimethylpentyl]thiophene-2-sulfonamide] | 6 | –
CCCCC(O)C(NS(=O)(=O)c1ccc(Cl)s1)C(C)CC (mixture of isomers) [Example 123] | – | APPI Fold Increase (Conc 10 μg/mL): 2.14 fold and 1.76 fold
C[C@@H](O)[C@@H](CO)NS(=O)(=O)c1ccc(Br)s1 [Example 117, 5-bromo-N-[(R,R)-2-hydroxy-1-(hydroxymethyl)propyl]thiophene-2-sulfonamide] | 2.6 | –
CCC(CO)(CO)NS(=O)(=O)c1ccc(Cl)s1 [Example 93, N-[1,1-bis(hydroxymethyl)propyl]-5-chlorothiophene-2-sulfonamide] | 2 | –
C=CCC(O)[C@@H](NS(=O)(=O)c1cccs1)[C@@H](C)CC (stereo partly drawn) [Example 147, N-{(S)-2-hydroxy-1-[(S)-1-methylpropyl]pent-4-enyl}thiophene-2-sulfonamide] | – | fold induction at 10 µg/mL (Conc 10 μg/mL): 2.04
CC[C@H](C)[C@@H](CO)NS(=O)(=O)C1=CC=C(Br)S1(=O)=O [Example 18, 5-Bromo-N-[(1S,2S)-1-(hydroxymethyl)-2-methylbutyl]thiophene-2-sulfonamide 1,1-dioxide] | 5.7 | fold induction at 3 µg/mL (Conc 3 μg/mL): 2.19; fold induction at 10 µg/mL (Conc 10 μg/mL): 5.23
CC[C@@H](CO)NS(=O)(=O)c1ccc(Cl)s1 [Example 100, 5-chloro-N-[(S)-1-(hydroxymethyl)propyl]thiophene-2-sulfonamide] | 1.5 | –
CCCCC[C@H](CC)[C@@H](CO)NS(=O)(=O)c1ccc(Cl)s1 [Example 41, 5-chloro-N-[(1S,2S)-2-ethyl-1-(hydroxymethyl)heptyl]thiophene-2-sulfonamide] | 4.7 | –
